From US20240150368A1, “ULK INHIBITORS AND METHODS OF USE THEREOF” (Deciphera Pharmaceuticals, LLC, priority 2022, published 2024)

Experiments:
[1] = test system: ULK kinase substrate ATG13 (pS318-ATG13) in A549 (KRAS mutant) cells; assay: pATG13 levels of mutant KRas A549 cells after treatment with ULK inhibitors in combination with trametinib (ELISA); type: cell-based, human
Outline: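 A549 cells grown overnight were treated with a test-compound dose response plus trametinib at 250 nM final (or DMSO) overnight at 37° C. Lysates were assayed by total-ATG13 capture and biotinylated pS318-ATG13 detection ELISA (450 nm minus 540 nm background); % phosphorylation versus controls gave IC50 values.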

[2] = test system: ULK kinase substrate ATG13 (pS318-ATG13) in MiaPaCa-2 cells; assay: pATG13 levels of mutant KRas MiaPaCa-2 cells after treatment with ULK inhibitors in combination with trametinib (ELISA); type: cell-based, human
Outline: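 MiaPaCa-2 cells grown overnight, then dosed with test compound titration plus trametinib (final 250 nM) or DMSO, overnight at 37° C. Lysate pS318-ATG13 measured by sandwich ELISA (total ATG13 capture, biotinylated pS318 detection, HRP/TMB, A450 minus A540); % phosphorylation vs control wells fitted to IC50.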

IC50 [1] [nM]	IC50 [2] [nM]	Compound
300 to 600	≤ 100	CC/C(Nc1cnn(CCN(C)C)c1)=C1/C(=O)Nc2ccc(C(=O)NCC(F)(F)F)cc21 [Example 103]
≤ 100	≤ 100	CC/C(Nc1cnn([C@H]2CCOC2)c1)=C1/C(=O)Nc2ccc(C(=O)NCC(F)(F)F)cc21 [Example 104]
≤ 100	≤ 100	CC/C(Nc1cnn([C@@H]2CCOC2)c1)=C1/C(=O)Nc2ccc(C(=O)NCC(F)(F)F)cc21 [Example 105]
100 to 300	≤ 100	CC/C(Nc1cnn(C2CCOCC2)c1)=C1/C(=O)Nc2ccc(C(=O)NCC(F)(F)F)cc21 [Example 106]
≤ 100	≤ 100	CC/C(Nc1cnn(CC)c1)=C1/C(=O)Nc2ccc(C(=O)NCC(F)(F)F)cc21 [Example 107]
> 600	100 to 300	CC/C(Nc1cn[nH]c1)=C1/C(=O)Nc2ccc(C(=O)NCC(F)(F)F)cc21 [Example 108]
≤ 100	≤ 100	CC/C(Nc1cnn(C(C)C)c1)=C1/C(=O)Nc2ccc(C(=O)NCC(F)F)cc21 [Example 112]
100 to 300	≤ 100	CC/C(Nc1cnn(C(F)(F)F)c1)=C1/C(=O)Nc2ccc(C(=O)NCC(F)(F)F)cc21 [Example 113]
100 to 300	≤ 100	CC/C(Nc1cnn(C(F)F)c1)=C1/C(=O)Nc2ccc(C(=O)NCC(F)(F)F)cc21 [Example 114]
≤ 100	≤ 100	CC/C(Nc1cnn(C2CC2)c1)=C1/C(=O)Nc2ccc(C(=O)NCC(F)(F)F)cc21 [Example 116]
≤ 100	≤ 100	CC/C(Nc1cnn(C2CCC2)c1)=C1/C(=O)Nc2ccc(C(=O)NCC(F)(F)F)cc21 [Example 117]
300 to 600	≤ 100	CC/C(Nc1cnn(C2COC2)c1)=C1/C(=O)Nc2ccc(C(=O)NCC(F)(F)F)cc21 [Example 118]
≤ 100	≤ 100	CC/C(Nc1cnn(C(C)C)c1)=C1/C(=O)Nc2ccc(C(=O)N[C@H](C)C(F)(F)F)cc21 [Example 119]
> 600	100 to 300	CC/C(Nc1cn(C(C)C)nn1)=C1/C(=O)Nc2ccc(C(=O)NCC(F)(F)F)cc21 [Example 122]
100 to 300	≤ 100	CC/C(Nc1cnn(C2CCN(C(C)C)CC2)c1)=C1/C(=O)Nc2ccc(C(C)=O)cc21 [Example 123]
> 600	300 to 600	CC/C(Nc1cccnc1)=C1/C(=O)Nc2ccc(C(=O)NCC(F)(F)F)cc21 [Example 124]
300 to 600	100 to 300	CC/C(Nc1cnn(C(C)C)c1)=C1/C(=O)Nc2ccc(C(=O)N(C)CC(F)(F)F)cc21 [Example 125]
300 to 600	100 to 300	CC/C(Nc1cnn(C(C)C)c1)=C1/C(=O)Nc2ccc(C(=O)NCCOC)cc21 [Example 126]
> 600	100 to 300	CC/C(Nc1cnn(C(C)C)c1)=C1/C(=O)Nc2ccc(C(=O)NCCC#N)cc21 [Example 127]
300 to 600	300 to 600	CC/C(Nc1cnn(C(C)C)c1)=C1/C(=O)Nc2ccc(C(=O)NC[C@@H](C)OC)cc21 [Example 128]
≤ 100	≤ 100	CC/C(Nc1cnn(C(C)C)c1)=C1/C(=O)Nc2ccc(C(=O)NCC(C)C)cc21 [Example 130]
≤ 100	≤ 100	CC/C(Nc1cnn(C(C)C)c1)=C1/C(=O)Nc2ccc(C(=O)NCC3CC(F)(F)C3)cc21 [Example 134]
≤ 100	≤ 100	CC/C(Nc1cnn(C(C)C)c1)=C1/C(=O)Nc2ccc(C(=O)NCC(C)(C)F)cc21 [Example 135]

IC50 [1] [nM]	IC50 [2] [nM]	Compound
100 to 300	≤ 100	CC/C(Nc1cnn(C(C)C)c1)=C1/C(=O)Nc2ccc(C(=O)NCCOC(F)(F)F)cc21 [Example 136]
300 to 600	100 to 300	CC/C(Nc1cnn(C(C)C)c1)=C1/C(=O)Nc2ccc(C(=O)NCC3CCC(C)(C)O3)cc21 (centres unmarked) [Example 137]
> 600	300 to 600	CC/C(Nc1cnn(C(C)C)c1)=C1/C(=O)Nc2ccc(C(=O)NCC3CCC4(CCC4)O3)cc21 (centres unmarked) [Example 138]
≤ 100	≤ 100	CC/C(Nc1cnn(C(C)C)c1)=C1/C(=O)Nc2ccc(C(=O)NCC3(C(F)(F)F)CC3)cc21 [Example 140]
300 to 600	100 to 300	CC/C(Nc1ccc2nn(C(C)C)cc2c1)=C1/C(=O)Nc2ccc(C(=O)NCC(F)(F)F)cc21 [Example 142]
≤ 100	≤ 100	CC/C(Nc1cnn(C2CC(F)(F)C2)c1)=C1/C(=O)Nc2ccc(C(=O)NCC(F)(F)F)cc21 [Example 144]
100 to 300	100 to 300	CC/C(Nc1ccccn1)=C1/C(=O)Nc2ccc(C(=O)NCC(F)(F)F)cc21 [Example 145]
100 to 300	≤ 100	CC/C(Nc1cnn(C(F)F)c1)=C1/C(=O)Nc2ccc(C(=O)NCC(C)C)cc21 [Example 147]
100 to 300	100 to 300	CC/C(Nc1cnn(C(C)C)c1)=C1/C(=O)Nc2ccc(C(=O)NCC(C)(C)OC)cc21 [Example 148]
100 to 300	100 to 300	CC/C(Nc1cc(C(F)(F)F)ccn1)=C1/C(=O)Nc2ccc(C(=O)NCC(F)(F)F)cc21 [Example 149]
≤ 100	≤ 100	CC/C(Nc1cnn(C(C)C)c1)=C1/C(=O)Nc2ccc(C(=O)NCC3(F)CC3)cc21 [Example 152]
≤ 100	≤ 100	CC/C(Nc1cnn(CC)c1)=C1/C(=O)Nc2ccc(C(=O)NCC3(F)CC3)cc21 [Example 153]
≤ 100	≤ 100	CC/C(Nc1cnn(C)c1)=C1/C(=O)Nc2ccc(C(=O)NCC3(F)CC3)cc21 [Example 154]
≤ 100	≤ 100	CC/C(Nc1cnn(C(C)C)c1)=C1/C(=O)Nc2ccc(C(=O)NCC3(C#N)CC3)cc21 [Example 156]
100 to 300	≤ 100	CC/C(Nc1cnn(CC(C)OC)c1)=C1/C(=O)Nc2ccc(C(=O)NCC(F)(F)F)cc21 (centres unmarked) [Example 157]
100 to 300	100 to 300	CC/C(Nc1cnn(CC(C)OC)c1)=C1/C(=O)Nc2ccc(C(=O)NCC(F)(F)F)cc21 (centres unmarked) [Example 158]
100 to 300	≤ 100	CC/C(Nc1cnn(C(C)CC)c1)=C1/C(=O)Nc2ccc(C(=O)NCC(F)(F)F)cc21 (centres unmarked) [Example 159]
100 to 300	≤ 100	CC/C(Nc1cnn(CC(F)(F)F)c1)=C1/C(=O)Nc2ccc(C(=O)NCC(C)(C)F)cc21 [Example 160]
≤ 100	≤ 100	CC/C(Nc1cnn(CC(F)F)c1)=C1/C(=O)Nc2ccc(C(=O)NCC(C)(C)F)cc21 [Example 161]
≤ 100	≤ 100	CC/C(Nc1cnn(C(C)C)c1)=C1/C(=O)Nc2ccc(C(=O)NCCC(F)(F)F)cc21 [Example 166]
300 to 600	100 to 300	CC/C(Nc1cnn(C(C)C)c1)=C1/C(=O)Nc2ccc(C(=O)NCC3(C)CCOC3)cc21 (centres unmarked) [Example 168]
100 to 300	100 to 300	CC/C(Nc1cnn(C(F)(F)F)c1)=C1/C(=O)Nc2ccc(C(=O)NCC(C)C)cc21 [Example 169]
≤ 100	≤ 100	CC/C(Nc1cnn(C2CCOCC2)c1)=C1/C(=O)Nc2ccc(C(=O)NCC(C)(C)F)cc21 [Example 173]
